Among the data in patent US10800741B2 (ANCUREALL PHARMACEUTICAL (SHANGHAI) CO., LTD., priority 2017, dated 2020) are IC50 values, retold here.

Assay type in all cases: cell-based, Human
The subject of one assay is Kasumi-1 (KIT N822K). In words: In vitro growth inhibition of Kasumi-1 tumor cells (MTT/CCK8). Particulars: Homo sapiens, Kasumi 1; in vitro growth inhibition (or induction of apoptosis), cells cultured 3 to 5 days, MTT (CCK8); read-out: IC50 Kasumi-1 (KIT N822K). The text has this:
(§1) Tumor cell lines are an effective model for studying in vitro tumor growth inhibition. In the present invention, a representative tumor cell line was selected to determine the cell growth inhibition activity of the present compound. All cell lines used were from ATCC, DSMZ, and cell banks of the Chinese Academy of Sciences. Cell culture conditions and methods were in accordance with the requirements of each cell line. Cells were subcultured in vitro for no more than 3 generations each time, and as required, single-clone purification and identification of cell lines could be carried out.
(§2) The cell culture media used were RPMI1640 (Gibco), DMEM (Gibco), MEM (Gibco), L15 (Gibco), IMDM (Gibco), McCOY'S5A, and William's (Gibco). 5-20% fetal bovine serum (Gibco), 1% double antibiotic, 2 mM glutamine, or 1 mM sodium pyruvate were added. The names, species, major gene characteristics, culture media and cell sources of the cell lines used are shown in table 1, wherein “amp” refers to gene amplification. “+++” refers to gene overexpression. The main genetic characteristics of cells were obtained from the COSMIC Cell Lines Project and related research papers, respectively.
(§3) Adherent cells were digested with 0.25% trypsin-EDTA (Gibco). Suspension culture cells were collected by centrifugation (1700 rpm, 3 minutes). The supernatant was discarded and the cells were counted. According to each cell growth cycle, different concentrations of cells were prepared (5˜10×10^4 cells per ml), and inoculated to 96-well plates (Corning), with 100 μl per well, and incubated overnight at 37° C., 5% CO2. The next day, the test compound was added to the cultured cells (2 wells in parallel). The final concentration of the solvent was less than 1/1,000. The cells were further cultured for 3 to 5 days and assayed by MTT.
(§4) The compound was stored at a concentration of 10 mM at −20° C. and diluted to 2- or 10-fold series prior to use. BGJ398 and AC220 were synthesized according to the methods of WO2006420A1 and US2007232604A1, respectively.
(§5) The adherent cells were taken out from the cell culture medium, and immediately added to a freshly prepared complete medium containing 10% CCK8 (5% FBS), 100 ul per hole. The suspended cells were directly added to a CCK8 reagent until reaching a final concentration of 10% and cultured for 1 to 4 hours.
(§6) T=optical density of drug-treated cell wells−optical density of blank control wells; T0=optical density of cell wells before drug treatment−optical density of blank control wells; C=optical density of solvent control wells−optical density of blank control wells. […] The experiments were repeated 1 to 3 times and a statistical analysis of data was conducted.

For the next assay, the system named is KATO III (FGFR2 amp). As to the kind of experiment: In vitro growth inhibition of KATO III tumor cells (MTT/CCK8). Particulars: Homo sapiens, KATO III; in vitro growth inhibition (or induction of apoptosis), cells cultured 3 to 5 days, MTT (CCK8); read-out: IC50 KATO III (FGFR2 amp).
Excerpt: as §1, §2, §3, §4, §5, §6

Another assay has as its system H1703 (PDGFRa amp). As to the kind of experiment: In vitro growth inhibition of H1703 tumor cells (MTT/CCK8). Particulars: Homo sapiens, NCI-H1703; in vitro growth inhibition (or induction of apoptosis), cells cultured 3 to 5 days, MTT (CCK8); read-out: IC50 H1703 (PDGFRa amp).
Excerpt: as §1, §2, §3, §4, §5, §6

Another assay concerns KCL-22 (BCR-ABL). In words: In vitro growth inhibition of KCL-22 tumor cells (MTT/CCK8). Particulars: Homo sapiens, KCL-22; in vitro growth inhibition (or induction of apoptosis), cells cultured 3 to 5 days, MTT (CCK8); read-out: IC50 KCL-22 (BCR-ABL).
Excerpt: as §1, §2, §3, §4, §5, §6

A further assay relates to Hep3B2 (FGFR3/4+++). As to the kind of experiment: In vitro growth inhibition of Hep3B2 tumor cells (MTT/CCK8). Particulars: Homo sapiens, Hep3B; in vitro growth inhibition (or induction of apoptosis), cells cultured 3 to 5 days, MTT (CCK8); read-out: IC50 Hep3B2 (FGFR3/4+++).
Excerpt: as §1, §2, §3, §4, §5, §6

Another assay has as its system H1581 (FGFR1 amp). In words: In vitro growth inhibition of H1581 tumor cells (MTT/CCK8). Particulars: Homo sapiens, NCI-H1581; in vitro growth inhibition (or induction of apoptosis), cells cultured 3 to 5 days, MTT (CCK8); read-out: IC50 H1581 (FGFR1 amp).
Excerpt: as §1, §2, §3, §4, §5, §6

The subject of another assay is Karpas 299 (NPM-ALK). As to the kind of experiment: In vitro growth inhibition of Karpas 299 tumor cells (MTT/CCK8). Particulars: Homo sapiens, KARPAS-299; in vitro growth inhibition (or induction of apoptosis), cells cultured 3 to 5 days, MTT (CCK8); read-out: IC50 Karpas 299 (NPM-ALK).
Excerpt: as §1, §2, §3, §4, §5, §6

The subject of the next assay is MOLM-13 (FLT3-ITD). As to the kind of experiment: In vitro growth inhibition of MOLM-13 tumor cells (MTT/CCK8). Particulars: Homo sapiens, MOLM-13; in vitro growth inhibition (or induction of apoptosis), cells cultured 3 to 5 days, MTT (CCK8); read-out: IC50 MOLM-13 (FLT3-ITD).
Excerpt: as §1, §2, §3, §4, §5, §6

Turning to `COc1cc2nccc(Oc3ccc(NC(=O)Nc4cc(C(C)(C)C)nn4C)c(Cl)c3C)c2cc1C(N)=O` [Compound 111, 4-{4-[3-(5-tert-butyl-2-methyl-2H-pyrazol-3-yl)-ureido]-3-chloro-2-methyl-phenoxy}-7-methoxy-carboxamide], the IC50 in the assay on Kasumi-1 (KIT N822K) is 0.375 nM; with KATO III (FGFR2 amp) it was 0.1 nM; in the assay on H1703 (PDGFRa amp), 4.75 nM; with KCL-22 (BCR-ABL), 1.07 nM; with Hep3B2 (FGFR3/4+++), 8.41 nM; in the assay on H1581 (FGFR1 amp), 2.98 nM. In addition, the IC50 with Karpas 299 (NPM-ALK) amounted to 55.7 nM.

As to `COc1cc2nccc(Oc3ccc(NC(=O)Nc4cc(C(C)(C)C)nn4C4CCCC4)c(Cl)c3)c2cc1C(N)=O` [Compound 30, 4-{4-[3-(5-tert-butyl-2-cyclopentyl-2H-pyrazol-3-yl)-ureido]-3-chloro-phenoxy}-7-methoxyquinolin-6-carboxamide], the IC50 with Kasumi-1 (KIT N822K) was 23.7 nM; with KATO III (FGFR2 amp), 1.62 nM; with H1703 (PDGFRa amp), 16.7 nM; with MOLM-13 (FLT3-ITD), 17.8 nM; in the assay with KCL-22 (BCR-ABL), 22 nM; in the assay with Hep3B2 (FGFR3/4+++), 26.1 nM. Further, the results for the IC50 with H1581 (FGFR1 amp) and in the assay on Karpas 299 (NPM-ALK) were 15.5 nM and 276 nM, respectively.

Consider `COc1cc2nccc(Oc3ccc(NC(=O)Nc4cc(C(C)(C)C)n[nH]4)cc3C(C)C)c2cc1C(N)=O` [Compound 107, 4-{4-[3-(5-tert-butyl-2H-pyrazol-3-yl)-ureido]-2-isopropyl-phenoxy}-7-methoxy-quinolin-6-carboxamide], for which the IC50 in the assay with Kasumi-1 (KIT N822K) is above 1000 nM; with KATO III (FGFR2 amp), 345 nM; in the assay on H1703 (PDGFRa amp), 263 nM; in the assay with MOLM-13 (FLT3-ITD), 50.4 nM; in the assay on KCL-22 (BCR-ABL), 589 nM; in the assay with Hep3B2 (FGFR3/4+++) it was above 1000 nM. For the same compound, the IC50 with H1581 (FGFR1 amp) stood at 341 nM; in the assay on Karpas 299 (NPM-ALK) it was 759 nM.

Turning to `COc1cc2nccc(Oc3ccc(NC(=O)Nc4cc(C(C)(C)C)nn4C)c(C)c3C)c2cc1C(N)=O` [Compound 110, 4-{4-[3-(5-tert-butyl-2-methyl-2H-pyrazol-3-yl)-ureido]-2,3-dimethyl-phenoxy}-7-methoxy-quinolin-6-carboxamide], the IC50 in the assay on Kasumi-1 (KIT N822K) turned out to be 0.41 nM; in the assay with KATO III (FGFR2 amp) it was 2.98 nM; with H1703 (PDGFRa amp), 46.1 nM; in the assay on MOLM-13 (FLT3-ITD), 19.7 nM; with KCL-22 (BCR-ABL), 3.21 nM; in the assay with Hep3B2 (FGFR3/4+++), 83.8 nM. Further, the figures for the IC50 in the assay with H1581 (FGFR1 amp) and with Karpas 299 (NPM-ALK) were 8.36 nM and 508 nM, respectively.

As for `COCCNC(=O)c1cc2c(Oc3ccc(NC(=O)Nc4cc(C(C)(C)C)n[nH]4)c(Cl)c3)ccnc2cc1OC` [Compound 62, 4-{4-[3-(5-tert-butyl-2H-pyrazol-3-yl)-ureido]-3-chloro-phenoxy}-7-methoxyquinolin-6-carboxylic acid (2-methoxy-ethyl)-amide], the IC50 is 47.5 nM with Kasumi-1 (KIT N822K); 1.89 nM with KATO III (FGFR2 amp); 93.1 nM in the assay with H1703 (PDGFRa amp); 7.83 nM in the assay on MOLM-13 (FLT3-ITD); 25.8 nM in the assay on KCL-22 (BCR-ABL); 73.2 nM in the assay on Hep3B2 (FGFR3/4+++). For the same compound, the values for the IC50 in the assay with H1581 (FGFR1 amp) and with Karpas 299 (NPM-ALK) were 13.7 nM and 312 nM, respectively.

Regarding `COc1cc2nccc(Oc3ccc(NC(=O)Nc4cc(C(C)(C)C)n[nH]4)c(Cl)c3C)c2cc1C(N)=O` [Compound 112, 4-{4-[3-(5-tert-butyl-2H-pyrazol-3-yl)-ureido]-3-chloro-2-methyl-phenoxy}-7-methoxy-quinolin-6-carboxamide], the IC50 came to 0.406 nM in the assay on Kasumi-1 (KIT N822K); 0.23 nM in the assay on KATO III (FGFR2 amp); 17.3 nM with H1703 (PDGFRa amp); 2.69 nM with KCL-22 (BCR-ABL); 15.8 nM in the assay with Hep3B2 (FGFR3/4+++); 3.02 nM in the assay with H1581 (FGFR1 amp). The IC50 in the assay with Karpas 299 (NPM-ALK) was 100 nM.
